Source: PubChem BioAssay (NCI)
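Step 1: Grow cells in 96-well plates. Step 2: Expose to compound for 48 hours at 5 concentrations. Step 3: Interpolate endpoints linearly; if unreached, use highest concentration. Here, GI50 denotes the concentration required for 50% inhibition of growth. TGI denotes the concentration required for complete inhibition of growth.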

Tests used:
Test in all cases: inhibition of tumour cell growth, NCI panel, 48 h
TK-10 renal = system: TK-10 renal
MOLT-4 leukemia = system: MOLT-4 leukemia
OVCAR-4 ovarian = system: OVCAR-4 ovarian
OVCAR-8 ovarian = system: OVCAR-8 ovarian
UO-31 renal = system: UO-31 renal
OVCAR-5 ovarian = system: OVCAR-5 ovarian
HCT-15 colon = system: HCT-15 colon
SR leukemia = system: SR leukemia
SK-MEL-28 melanoma = system: SK-MEL-28 melanoma
CCRF-CEM leukemia = system: CCRF-CEM leukemia

SMILES | TGI (TK-10 renal) | TGI (MOLT-4 leukemia) | TGI (OVCAR-4 ovarian) | TGI (OVCAR-8 ovarian) | TGI (UO-31 renal) | TGI (OVCAR-5 ovarian) | TGI (HCT-15 colon) | TGI (SR leukemia) | TGI (SK-MEL-28 melanoma) | TGI (CCRF-CEM leukemia) | GI50 (TK-10 renal) | GI50 (MOLT-4 leukemia) | GI50 (OVCAR-4 ovarian) | GI50 (OVCAR-8 ovarian) | GI50 (UO-31 renal) | GI50 (OVCAR-5 ovarian) | GI50 (HCT-15 colon) | GI50 (SR leukemia) | GI50 (SK-MEL-28 melanoma) | GI50 (CCRF-CEM leukemia)
CC(C)(C)c1ccc(-c2nnc(SCc3ccc(Cl)cc3)n2-c2cccc(C(F)(F)F)c2)cc1 | > 100 µM | > 67.1 µM | > 100 µM | > 100 µM | 34.2 µM | > 96.1 µM | > 100 µM | 31.5 µM | > 100 µM | > 100 µM | – | – | – | – | – | – | – | – | – | –
CN(C)CCn1cc(-c2ccc3c(Nc4ccc(CC(=O)Nc5cccc(F)c5)cc4)ncnc3c2)cn1 | 4.21 µM | > 10 µM | 3.09 µM | 6.39 µM | > 10 µM | 4.26 µM | > 10 µM | > 10 µM | 3.02 µM | > 10 µM | 1.62 µM | 2.51 µM | 1.53 µM | 1.6 µM | 5.67 µM | 1.58 µM | 4.44 µM | 1.53 µM | 1.61 µM | 0.0178 µM
COc1ccccc1NC(=O)C1=C(C)NC(C)=C(C(=O)Nc2ccccc2OC)C1c1ccc(C(C)C)cc1 | > 100 µM | > 100 µM | > 100 µM | > 100 µM | > 100 µM | > 100 µM | > 100 µM | > 100 µM | > 100 µM | > 1 µM | – | – | – | – | – | – | – | – | – | –
C=C1C(=O)O[C@H]2[C@H]1CC/C(COC(=O)CCC(=O)OC/C1=C/CC[C@@]3(C)O[C@H]3[C@H]3OC(=O)C(=C)[C@@H]3CC1)=C\CC[C@@]1(C)O[C@@H]21 | 3.38 µM | 2.8 µM | 5.9 µM | 10.4 µM | 2.39 µM | 6.03 µM | 3.58 µM | 2.52 µM | 3.97 µM | 0.778 µM | 1.75 µM | 0.561 µM | 2.07 µM | 2.75 µM | 1.02 µM | 2.13 µM | 1.54 µM | 0.345 µM | 1.53 µM | 0.251 µM
COc1cc2c(/C=C3\C(=O)Nc4ccc(Br)cc43)c(Cl)n(C)c2cc1C | 9.19 µM | > 27.5 µM | 24.8 µM | 20.3 µM | 11.3 µM | 15.9 µM | 8.06 µM | – | 3.49 µM | 23.2 µM | 2.72 µM | 5.63 µM | 4.12 µM | 5.12 µM | 2.46 µM | 4.11 µM | 1.92 µM | 1.42 µM | 0.418 µM | 2.94 µM
COc1ccc(C(=O)Nc2cccc(C3CC(=O)c4c(cc(OC)c(OC)c4OC)O3)c2)cc1 (stereo not drawn) | > 100 µM | 5.18 µM | 30.7 µM | 20.5 µM | > 100 µM | > 100 µM | > 100 µM | > 100 µM | > 100 µM | > 100 µM | 7.28 µM | 1.02 µM | 3.11 µM | 2.79 µM | 1.33 µM | 4.98 µM | 0.475 µM | 0.171 µM | 5.13 µM | 0.426 µM
O=[N+]([O-])c1ccc2[nH]cc(-c3c4ccccc4cc4[nH]c5ccc([N+](=O)[O-])cc5c34)c2c1 | 6.79 µM | 6.55 µM | 3.02 µM | 8.17 µM | 5.1 µM | 5.94 µM | 4.49 µM | > 100 µM | 3.71 µM | 6.71 µM | 2.59 µM | 2.45 µM | 1.57 µM | 2.59 µM | 1.76 µM | 2.21 µM | 1.88 µM | 2.86 µM | 1.8 µM | 2.38 µM
Oc1ccc2ccccc2c1/C=N\Nc1ccccn1 | > 100 µM | > 100 µM | > 100 µM | > 60.4 µM | 1.31 µM | > 100 µM | > 100 µM | > 100 µM | > 100 µM | – | 4.85 µM | 0.358 µM | 1.24 µM | 0.365 µM | 0.114 µM | 4.25 µM | 0.511 µM | 0.357 µM | 8.81 µM | 0.328 µM
Fc1ccc(Nc2nc(Nc3ccc(-c4nc5ccccc5[nH]4)cc3)nc(N3CCCC3)n2)cc1 | 31.3 µM | 5.74 µM | 14.6 µM | 5.81 µM | 14.4 µM | 8.19 µM | 6.03 µM | 6.5 µM | 3.66 µM | 10.4 µM | 17.1 µM | 2.19 µM | 3.65 µM | 2.36 µM | 3.13 µM | 2.93 µM | 2.25 µM | 0.927 µM | 1.87 µM | 2.98 µM
CCCNc1nc(-c2ccc(OC)cc2)nc2ccccc12 | 26.7 µM | > 100 µM | > 100 µM | 95 µM | > 100 µM | 43 µM | 31.9 µM | > 100 µM | 53.6 µM | 68.3 µM | 13.2 µM | 46.4 µM | 41 µM | 25 µM | 19.1 µM | 16.4 µM | 14.3 µM | 13.8 µM | 18.6 µM | 11.1 µM
CCCCOC(=O)N[C@H]1CCc2cc(OC)c(OC)c(OC)c2-c2ccc(SC)c(=O)cc21 | 52.4 µM | 57.8 µM | > 96.5 µM | 12.7 µM | 49.5 µM | 91.8 µM | > 15.8 µM | > 43 µM | 16.2 µM | 35.8 µM | – | – | – | – | – | – | – | – | – | –
CC(O)CN(CCN(CC(C)O)CC(C)O)CC(C)O.O=[N+]([O-])O.[Cu+2] (stereo not drawn) | > 100 µM | > 100 µM | > 100 µM | > 100 µM | > 100 µM | > 100 µM | > 100 µM | > 100 µM | > 100 µM | > 100 µM | > 100 µM | > 100 µM | 73.6 µM | > 100 µM | > 100 µM | > 100 µM | > 100 µM | > 100 µM | > 100 µM | > 100 µM
COc1ccc(/C=C(/C(=O)N2CCNCC2)c2cc(OC)c(OC)c(OC)c2)cc1O | > 100 µM | > 100 µM | > 100 µM | > 100 µM | > 100 µM | > 100 µM | > 100 µM | > 100 µM | > 100 µM | > 100 µM | 79.4 µM | 3.94 µM | 8.15 µM | 5.64 µM | 55.5 µM | 6.21 µM | 36.7 µM | 0.642 µM | 8.84 µM | 3.23 µM
